Source: patent publication US11260066B2, “Inhibiting reduction of lean body mass and inhibiting accumulation of liver fat by administering allulose” (SAMYANG CORPORATION, priority 2017, dated 2022)

Key:
[1] = Glucose index test (FBS, Insulin, HbA1c) on collected blood, human application test; type: in vivo; details: for Glucose, 12 W, Mean / Glucose, 12 W, Median / HbA1, 12 W, Mean / HbA1, 12 W, Median / Insulin, 12 W, Mean / Insulin, 12 W, Median / Glucose, Difference (12 W vs baseline) / Insulin, Difference (12 W vs baseline): ITT 33
From the text: After conducting a screening test for those who heard the detailed description of the purpose and research method of the present example and agreed in writing as subjects, those who met the selection/exclusion criteria were selected. The specific selection criteria are as follows, and the final selected subjects are 99 men and women who are overweight or obese, and the demographic information of the selected subjects is shown in the following Table 1. Ninety nine (99) subjects were randomly assigned to the high-dose group, low-dose group or control group, with including 33 subjects in each test group. In three test groups, the products were mixed in 100 ml of water and were administered orally twice a day. As the daily dose for one test subject, 12 g allulose in the high-dose group, 6 g allulose and 6 g anhydrous glucose in the low-dose group, and 12 g anhydrous glucose in the control group were divided and provided twice a day. It was administered from the day after the random assignment day (0 day), and was taken with drinking water twice at morning and evening with meals for 12 weeks. At the time of screening hospital visit (visit1), visit2 and final visit (visit5), FBS, Insulin, and HbAlc test was conducted for the collected blood. After calculating the average change of the glucose index (FBS, Insulin, HbAlc) after 12 weeks compared to the base time, technical statistics (mean, standard deviation, median value, minimum value, maximum value) were obtained. The comparative statistic test for the three groups was performed using ANOVA or Kruscal-Wallis test by testing whether data were normally distributed. When there was a significant difference between the three groups, the multiple comparisons were conducted through Tukey-Kramer method. In order to find out whether there was a difference in the mean change in a group, it was analyzed using Paired t-test or Wilcoxon's signed rank test.

[2] = parameters: species or system human; details: in vivo
[3] = Body fat and lean body mass measured by DXA, 12-week human application test; type: in vivo; details: for Lean, 12 W, Mean / Fat, Difference (average change at 12 weeks compared to base time) / Lean, Difference (12 W vs baseline): ITT 33; for Fat, 12 W, Mean: ITT 33 overweight/obese adults
Protocol: After conducting a screening test for those who heard the detailed description of the purpose and research method of the present example and agreed in writing as subjects, those who met the selection/exclusion criteria were selected. The specific selection criteria are as follows, and the final selected subjects are 99 men and women who are overweight or obese, and the demographic information of the selected subjects is shown in the following Table 1. The efficacy test was performed by dividing 99 selected test subjects into 3 groups, and by providing three products to the high-dose group (33 people), low-dose group (33 people), and control group (33 people), respectively. The allulose high-dose product was provided to the high-dose test group, and the allulose low-dose product was provided to the low-dose test group, and placebo product was provided to the control group. Ninety nine (99) subjects were randomly assigned to the high-dose group, low-dose group or control group, with including 33 subjects in each test group. In three test groups, the products were mixed in 100 ml of water and were administered orally twice a day. As the daily dose for one test subject, 12 g allulose in the high-dose group, 6 g allulose and 6 g anhydrous glucose in the low-dose group, and 12 g anhydrous glucose in the control group were divided and provided twice a day. It was administered from the day after the random assignment day (0 day), and was taken with drinking water twice at morning and evening with meals for 12 weeks. At the random assignment day (0 day), the efficacy evaluation items and safety evaluation items such as DXA measurement and the like were checked, and the evaluation items were also checked through hospital outpatient visit at 4 weeks, 8 weeks and 12 weeks from the day of beginning administration of test products. In addition, during the human application test, the usual physical activity of subjects was investigated using Korean version of International Physical Activity Questionnaire (IPAQ). During the human application test period, the subjects were trained to maintain the activity amount being similar to normal physical activity. At each hospital outpatient visit, the amount of meal intake was examined by the recording board made by the subjects. The subjects were trained to maintain the amount of meal intake being similar to the usual amount with avoiding overeating condition. At the time of second hospital visit (visit 2) and final hospital visit (visit 5), the body fat ratio and body fat were measured using prodigy DXA of U.S. Lunar Company. For the body fat measured by DXA, after calculating the change of the body fat after 12 weeks compared to the base time, technical statistics (mean, standard deviation, median value, minimum value, maximum value) were obtained. The comparative statistic test for the three groups was performed using ANOVA or Kruscal-Wallis test by testing whether data were normally distributed. When there was a significant difference between the three groups, the multiple comparison was conducted through Tukey-Kramer method. In order to find out whether there was a difference in the mean change in a group, it was analyzed using Paired t-test or Wilcoxon's signed rank test.

[4] = Blood chemical test (Alkaline phosphatase, AST, ALT, γ-GTP), human application test; type: in vivo; details: for ALT(SGPT), Mean / ALT(SGPT), Median / AST(SGOT), Mean / AST(SGOT), Median / Alkaline phosphatase, Mean / Alkaline phosphatase, Median / γ-GTP, Mean / γ-GTP, Median: ITT 33, time point not given; for ALT, change at 12 weeks compared to the base time / Alkaline phosphatase, change at 12 weeks compared to the base time / γ-GTP, change at 12 weeks compared to the base time: increased in control
From the text: After conducting a screening test for those who heard the detailed description of the purpose and research method of the present example and agreed in writing as subjects, those who met the selection/exclusion criteria were selected. The specific selection criteria are as follows, and the final selected subjects are 99 men and women who are overweight or obese, and the demographic information of the selected subjects is shown in the following Table 1. Ninety nine (99) subjects were randomly assigned to the high-dose group, low-dose group or control group, with including 33 subjects in each test group. In three test groups, the products were mixed in 100 ml of water and were administered orally twice a day. As the daily dose for one test subject, 12 g allulose in the high-dose group, 6 g allulose and 6 g anhydrous glucose in the low-dose group, and 12 g anhydrous glucose in the control group were divided and provided twice a day. It was administered from the day after the random assignment day (0 day), and was taken with drinking water twice at morning and evening with meals for 12 weeks. (4) Blood chemical test result The test items performed at screening visit (visit1), visit2 and end visit (visit5) were Alkaline phosphatase, AST, ALT, and γ-GTP. In case of continuous data, for the average change compared to the base time, technical statistics (mean, standard deviation, median value, minimum value, maximum value) were proposed for the average change compared to the base time. The comparative statistic test for the three groups was performed using ANOVA or Kruscal-Wallis test by testing whether data were normally distributed. When there was a significant difference between the three groups, the multiple comparison was conducted through Tukey-Kramer method. In order to find out whether there was a difference in the mean change in a group, it was analyzed using Paired t-test or Wilcoxon's signed rank test. In case of categorical data, technical statistics (frequency, percentage) were proposed, and comparative statistic test was performed between three groups using Chi-square test or Fisher' exact test.

[5] = parameters: species or system human; details: in vivo; remark: listed apart in the source
Protocol: Furthermore, the difference of the average change between the three groups at 12 weeks compared to the base time for the items was analyzed in the laboratory test.

[6] = Liver CT: degree of fat deposition in the liver (HU of liver and spleen), human application test; type: in vivo; details: for Liver HU Mean, 12 W, Mean / Liver - Spleen HU (Liver minus Spleen), 12 W, Mean / Spleen HU Mean, 12 W, Mean: 12 weeks; for Liver HU Mean, 12 W, Mean / Liver HU Mean, Difference (12 W vs base line): ITT 33
From the text: After conducting a screening test for those who heard the detailed description of the purpose and research method of the present example and agreed in writing as subjects, those who met the selection/exclusion criteria were selected. The specific selection criteria are as follows, and the final selected subjects are 99 men and women who are overweight or obese, and the demographic information of the selected subjects is shown in the following Table 1. Ninety nine (99) subjects were randomly assigned to the high-dose group, low-dose group or control group, with including 33 subjects in each test group. In three test groups, the products were mixed in 100 ml of water and were administered orally twice a day. As the daily dose for one test subject, 12 g allulose in the high-dose group, 6 g allulose and 6 g anhydrous glucose in the low-dose group, and 12 g anhydrous glucose in the control group were divided and provided twice a day. It was administered from the day after the random assignment day (0 day), and was taken with drinking water twice at morning and evening with meals for 12 weeks. In order to evaluate the degree of fat deposition in the liver at the time of hospital visit 2 and visit 5, the HU of liver, HU of spleen, HU difference of liver and spleen (Liver minus Spleen), and HU ratio of liver and spleen (Ratio Between Liver and Spleen) after 12 weeks compared to the base time were measured. CT attenuation values (Hounsfield units) were measured in regions of interest (ROI) selected as a homogeneous place avoiding blood vessels in the right lobe of liver and spleen in one non-contrast-enhanced abdominal CT image including both liver and spleen three times, and the average value was taken as each CT attenuation number. Then, the size of each region of interest was designated equally as 120 mm^2. Through liver CT, for HU of liver, HU of spleen, HU difference of liver and spleen (Liver minus Spleen), and HU ratio of liver and spleen (Ratio Between Liver and Spleen) after 12 weeks, technical statistics (mean, standard deviation, median value, minimum value, maximum value) were proposed for the average change compared to the base time. The comparative statistic test for the three groups was performed using ANOVA or Kruscal-Wallis test by testing whether data were normally distributed. When there was a significant difference between the three groups, the multiple comparisons were conducted through Tukey-Kramer method. In order to find out whether there was a difference in the mean change in a group, it was analyzed using Paired t-test or Wilcoxon's signed rank test.

[7] = high-dose group: allulose 12 g/d oral, 12 weeks
[8] = high-dose group: allulose 12 g/d oral
[9] = low-dose group: allulose 6 g/d + anhydrous glucose 6 g/d oral, 12 weeks
[10] = low-dose group: allulose 6 g/d + anhydrous glucose 6 g/d oral
[11] = high-dose group: allulose 12 g/d, statistically significant before/after
[12] = low-dose group: allulose 6 g/d + glucose 6 g/d, statistically significant before/after
[13] = high-dose group: allulose 12 g/d oral, N 33
[14] = low-dose group: allulose 6 g/d + anhydrous glucose 6 g/d oral, N 32

## O=C(CO)C(O)C(O)C(O)CO (stereo not shown) [allulose]
[1]; high- and low-dose groups, 12 weeks, subjects with normal blood sugar
  hypoglycemic effect (Glucose, Insulin, HbA1c): no hypoglycemic effect
[1]; [7]
  Glucose, 12 W, Mean: 94.58 mg/dL
  Glucose, 12 W, Median: 94.00 mg/dL
  HbA1, 12 W, Mean: 5.66%
  HbA1, 12 W, Median: 5.6%
  Insulin, 12 W, Mean: 8.7 µIU/mL
  Insulin, 12 W, Median: 7.5 µIU/mL
[1]; [8]
  Glucose, Difference (12 W vs baseline): -0.12 ± 8.35 mg/dL
  Insulin, Difference (12 W vs baseline): 1.75 ± 5.33 µIU/mL
[1]; [9]
  Glucose, 12 W, Mean: 97.18 mg/dL
  Glucose, 12 W, Median: 97.00 mg/dL
  HbA1, 12 W, Mean: 5.64%
  HbA1, 12 W, Median: 5.6%
  Insulin, 12 W, Mean: 9.18 µIU/mL
  Insulin, 12 W, Median: 7.1 µIU/mL
[1]; [10]
  Glucose, Difference (12 W vs baseline): 2.42 ± 10.10 mg/dL
  Insulin, Difference (12 W vs baseline): 1.27 ± 5.15 µIU/mL
[2]
  diastolic blood pressure and pulse rate: did not showed statistically significant difference between three groups
[3]; allulose administration groups, 12 weeks, control reduced by 0.61 kg
  lean body mass before and after administration: did not show a difference before and after administration
[3]; allulose low-dose group and high-dose group, 12 weeks
  body fat before and after administration: slightly increased, but there was no statistically significant difference before and after administration
[3]; conclusion from analysis of body components, 12 weeks
  body fat accumulation and muscle mass reduction: inhibited
[3]; [7]
  Lean, 12 W, Mean: 40.24 kg
  Fat, 12 W, Mean: 26.31 kg
[3]; [8]
  Fat, Difference (average change at 12 weeks compared to base time): 0.25 ± 1.34 kg
  Lean, Difference (12 W vs baseline): -0.22 ± 1.08 kg
[3]; [9]
  Lean, 12 W, Mean: 42.26 kg
  Fat, 12 W, Mean: 26.80 kg
[3]; [10]
  Fat, Difference (average change at 12 weeks compared to base time): 0.16 ± 0.91 kg
  Lean, Difference (12 W vs baseline): 0.05 ± 0.89 kg
[4]; [8]
  ALT(SGPT), Mean: 22.21 U/L
  ALT(SGPT), Median: 16.00 U/L
  AST(SGOT), Mean: 18.76 U/L
  AST(SGOT), Median: 18.00 U/L
  Alkaline phosphatase, Mean: 183.21 U/L
  Alkaline phosphatase, Median: 169.00 U/L
  γ-GTP, Mean: 18.18 U/L
  γ-GTP, Median: 14.00 U/L
[4]; [11]
  ALT, change at 12 weeks compared to the base time: reduced
  Alkaline phosphatase, change at 12 weeks compared to the base time: reduced
  γ-GTP, change at 12 weeks compared to the base time: reduced
[4]; [10]
  ALT(SGPT), Mean: 26.88 U/L
  ALT(SGPT), Median: 19.00 U/L
  AST(SGOT), Mean: 22.64 U/L
  AST(SGOT), Median: 18.00 U/L
  Alkaline phosphatase, Mean: 178.97 U/L
  Alkaline phosphatase, Median: 170.00 U/L
  γ-GTP, Mean: 33.58 U/L
  γ-GTP, Median: 19.00 U/L
[4]; low-dose group: allulose 6 g/d + glucose 6 g/d
  ALT, change at 12 weeks compared to the base time: reduced
[4]; [12]
  Alkaline phosphatase, change at 12 weeks compared to the base time: reduced
  γ-GTP, change at 12 weeks compared to the base time: reduced
[5]
  normality of the urine test: no clinically significant abnormal subject
[6]; [8]
  Liver HU Mean, 12 W, Mean: 57.49 HU
  Liver HU Mean, Difference (12 W vs base line): −0.78 ± 5.60 HU
[6]; [13]
  Liver - Spleen HU (Liver minus Spleen), 12 W, Mean: 7.19 HU
  Spleen HU Mean, 12 W, Mean: 50.30 HU
  Liver - Spleen HU, Difference (12 W vs base line): −1.28 ± 5.36 HU
  Spleen HU Mean, Difference (12 W vs base line): 0.50 ± 2.77 HU
[6]; [10]
  Liver HU Mean, 12 W, Mean: 55.17 HU
  Liver HU Mean, Difference (12 W vs base line): −0.69 ± 5.17 HU
[6]; [14]
  Liver - Spleen HU (Liver minus Spleen), 12 W, Mean: 4.75 HU
  Spleen HU Mean, 12 W, Mean: 50.66 HU
  Liver - Spleen HU, Difference (12 W vs base line): −0.55 ± 5.43 HU
  Spleen HU Mean, Difference (12 W vs base line): −0.41 ± 2.34 HU
